According to patent US6204067A, “Methods of identifying modulators of the estrogen receptor” (Board of Trustees Operating Michigan State University, priority 1999, dated 2001):
Entries after “also recorded” stand apart in the source; their conditions may differ.

How the values were obtained:
[1] = Method: The lumenal pH (pHL) of liposomes was assayed with pyranine, a fluorescent dye with a pKa~7.3 and a λex =405 nm in its acid form (-3 charge) and a λex =455 nm in its basic form (-4 charge). To prepare pyranine loaded liposomes, lipids (2 mg POPC, 1 mg cholesterol) supplied in chloroform suspension were dried in a round bottom flask under argon for 2 hours. The lipids were then resuspended in acidic or alkaline liposome buffer (300 mM KCl, 20 mM MES, 20 mM MOPS, 20 mM Tricine titrated with KOH to either pH 6.2 or pH 8.1) containing 0.5 mM pyranine. The suspension was incubated at room temperature overnight, then freeze-thawed 6×. Unilamellar liposomies were prepared by extrusion 3× through 2 stacked 100 nm Nucleopore (Corning/Costar Scientific, Acton, Mass.) polycarbonate filters in an Avestin (Vancouver, BC) extruder at 600 PSI.
The pyranine fluorescence was calibrated as a function of pH by diluting the liposomes with pH 6.2 into a weakly buffered solution of identical pH (300 mM KCl, 1 mM MES, 1 mM MOPS, 1 mM Tricine, pH 6.2), 1 μM nigericin to allow rapid equilibration with external pH and 5 mM DPX to quench external pyranine. The ratio of the fluorescence emission at λem =510 nm was monitored with dual excitation wavelengths of λex =405 nm and λex =455 nm. Sequential aliquots of 0.1 mM glycylglycine, pH 8.4 were added to increase pH (See FIG. 5). The fluorescence was measured after each addition and the pH was measured using a pH meter. […] The cahiration curve for the liposomes of lumenal pH 8.1 was generated identically except sequential aliquots of 0.1 mM K-MES pH 5.0 were added for titration and the curve was generated between pH 8.1 and pH 6.4.
To measure the rate of pH dissipation of liposomes with lumenal pH=6.2, the liposomes were diluted in weakly buffered solution of identical pH as described above, but with no nigericin. […] The external pH was shifted to pH 7.3 by addition of 5 mM glycylglycine pH 8.4 and the fluorescence ratio monitored. After 10 minutes, 1 μM nigericin was added to dissipate the remaining pH gradient. The pHL was calculated using the equation pH=x*log(λex =405 nm/[…])+c, were x and c are constants from the least square fit of the titration curve. To measure the rate of pH dissipation of liposomes with pHL =8.1, the identical procedure was followed except 5 mM K-MES pH 5.0 was added to shift the external pH to 6.9.
Liposomes were loaded with pyranine, a hydrophilic, non-permeable fluorescent pH indicator to assay proton permeability. […] Two steps were taken to ensure that only pHL was measured and to permit the discrimination between dissipation of pH gradient and the lysis or dye leakage from liposomes.

yeast vacuoles = assay: Acidification of yeast vacuoles (acridine orange); assay type: biochemical, S. cerevisiae
Method: Vacuoles from S. cerevisiae were prepared from the protease deficient strain BJ2407 (Yeast Genetic Stock Center, University of California, Berkeley) by sequential floatation through 12% and 8% Ficoll 400 cushion as described previously [Roberts et al., Methods Enzymol, 194:644-661 (1991)] with the single modification that 1× protease inhibitor mix and 1 mM DTT was included in each step. […] Acidification was measured using AO as described above. For acidification in chloride-free solution, gluconate or glutamate was used in vesicle buffer instead of chloride.
ATP (1.5 mM) was added at 50 sec to initiate acidification and at 400 sec nigericin (1 μM) was added to dissipate pH gradients.

yeast vATPase = assay: Bafilomycin-inhibitable ATPase activity of yeast vATPase; assay type: biochemical, S. cerevisiae; conditions: 5 μM, chloride and gluconate buffer
Method: Vacuoles were diluted in KCl or K-gluconate vesicle buffer. […] Each of the four resulting samples was again split into two and either carrier or […] bafilomycin A1 was added. Next, 2 mM Tris-ATP was added to each sample and the vacuoles were incubated at 30° C. for 15 minutes. To measure the phosphate concentration from ATP hydrolysis, equal volume of Taussky-Shorr Reagent (1% w/v ainmoniummolybdate (w/v), 2.7% v/v sulfuric acid, and 5% w/v ferrous sulfate hexahydrate) was added and the samples were developed for 15 minutes. The A660 was measured (Spectronic Genesys 2) which is linearly related to phosphate concentration. The bafilomycin inlubtable ATPase activity was taken as the difference between the ATPase activity of each condition with or without 100 nM bafilomycin A1.
Replacing chloride with gluconate decreased the bafilomycin-inhibitable ATPase activity (FIG. 3B), further confirming that chloride provided the counter-ion transport to dissipate the Vm.

CC/C(=C(\c1ccccc1)c1ccc(OCCN(C)C)cc1)c1ccccc1 [tamoxifen]
effect of addition on pHL without pre-existing pH gradient ([1]; pHL 6.2 = external pH, tamoxifen 2 μM, 8 μM, NH4Cl 5 mM): alkalinization of liposomes, followed by more rapid pH equilibration | effect on pH equilibration with chloride included ([1]; pHL 8.1, 300 mM K-glutamate plus 90 mM KCl, external pH shifted to 6.9): more rapid pH equilibration | effect on dissipation of pH in the absence of chloride ([1]; pHL 8.1, 300 mM K-glutamate, external pH shifted to 6.9): no effect on the dissipation of pH | rate of pH gradient dissipation, alkaline lumen ([1]; pHL 8.1, external pH shifted to 6.9, tamoxifen 0.5-8 μM, NH4Cl 5 mM, FCCP 1 μM, valinomycin 1 μM): dissipated more quickly with increasing concentrations; also recorded: faster than saturating concentration of FCCP | effect of addition to pre-acidified vacuoles (yeast vacuoles; added at 250 sec, tamoxifen 2 μM, ammonium 1 mM): rapid alkaline step followed by slower alkalinization | concentration giving complete inhibition of acidification (yeast vacuoles; pre-equilibrated, 1.5 mM ATP, KCl buffer): 8 µM | inhibition of vacuole acidification (yeast vacuoles; pre-equilibrated, tamoxifen 2 μM or 8 μM, ammonium chloride 1 mM): dose dependent inhibition of acidification | effect on bafilomycin-inhibitable ATPase activity (yeast vATPase): increase of ATPase activity
